Two molecules from PMC5638581 (Molecular Biology of the Cell, 2017) can be followed below.

Series [1] deals with TorsinA (TorA) with LAP1 luminal domain (LAP1^LD) (Homo sapiens, UniProt O14656). As to conditions: 3 μM TorA, 3 μM LAP1 LD, 2 mM ATP, 37 °C, 1 h.
The target in series [2] is TorsinA (TorA) with LULL1 luminal domain (LULL1^LD) (Homo sapiens, UniProt O14656). As to conditions: 3 μM TorA, 3 μM LULL1 LD, 2 mM ATP, 37 °C, 1 h.
Series [3] deals with the molecule itself. Briefly: SEC + other: negative stain electron microscopy.

Sequence of TorsinA (TorA) with LAP1 luminal domain (LAP1^LD) (Q5JTV8 356-583 partner, one chain of several): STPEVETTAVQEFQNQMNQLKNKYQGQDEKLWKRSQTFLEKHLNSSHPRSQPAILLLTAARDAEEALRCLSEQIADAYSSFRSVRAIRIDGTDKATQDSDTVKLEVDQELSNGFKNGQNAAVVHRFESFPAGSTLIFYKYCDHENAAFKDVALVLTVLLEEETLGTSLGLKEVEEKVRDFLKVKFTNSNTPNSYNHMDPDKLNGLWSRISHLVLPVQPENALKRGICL
Sequence of TorsinA (TorA) with LULL1 luminal domain (LULL1^LD) (Q8NFQ8 236-470 partner, one chain of several): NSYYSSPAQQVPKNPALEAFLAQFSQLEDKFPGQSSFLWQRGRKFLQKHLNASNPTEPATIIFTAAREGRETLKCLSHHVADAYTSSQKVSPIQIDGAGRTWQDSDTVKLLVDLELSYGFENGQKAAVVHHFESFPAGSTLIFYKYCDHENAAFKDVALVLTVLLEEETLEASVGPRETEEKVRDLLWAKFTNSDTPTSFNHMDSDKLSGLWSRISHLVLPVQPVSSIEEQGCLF

In the case of `Nc1ncnc2c1ncn2[C@@H]1O[C@H](COP(=O)(O)OP(=O)(O)OP(=O)(O)O)[C@@H](O)[C@H]1O` [ATP], the “malachite green phosphate release (ATPase)” value in series [1] was “ATPase activity was measured in the absence and presence of LAP1^LD and LULL1^LD”; in series [2], “ATPase activity was measured in the absence and presence of LAP1^LD and LULL1^LD”.

B1: TorsinA wild type, C-terminally FLAG-tagged, full length (enzyme, human, UniProt O14656 21-332, looked up)
chain: VEPISLGLALAGVLTGYIYPRLYCLFAECCGQKRSLSREALQKDLDDNLFGQHLAKKIILNAVFGFINNPKPKKPLTLSLHGWTGTGKNFVSKIIAENIYEGGLNSDYVHLFVATLHFPHASNITLYKDQLQLWIRGNVSACARSIFIFDEMDKMHAGLIDAIKPFLDYYDLVDGVSYQKAMFIFLSNAGAERITDVALDFWRSGKQREDIKLKDIEHALSVSVFNNKNSGFWHSSLIDRNLIDYFVPFLPLEYKHLKMCIRVEMQSRGYEIDEDIVSRVAEEMTFFPKEERVFSDKGCKTVFTKLDYYYDD
Turning to B1, in series [3], the “stoichiometry N” value was about 6.

A word on the stoichiometry N: it is the number of molecules, sites or subunits per partner or assembly.
